Entries after “also recorded” stand apart in the source; their conditions may differ.
Experiments:
[1] = tested on: NRVM; experiment: Respirometry (reserve capacity) in neonatal rat ventricular myocytes; type: cell-based; conditions: 10 μM Z160 for 24 h following 48 h 100 μM isoproterenol
Description: (§1) Rat H9c2 cells were grown in DMEM supplemented with 10% FBS, 25 mM glucose, 1 mM pyruvate, and 2 mM glutamine Neonatal rat ventricular myocytes (NRVM) were isolated and cultured as previously described. Briefly, 2-4 day old rats were sacrificed and myocytes and fibroblasts were isolated and separated using a Percoll density gradient. Following isolation, NRVMs were plated on gelatin-coated plates in DMEM containing 10% FBS, 25 mM glucose, 1 mM pyruvate, and 2 mM glutamine The next day, FBS was replaced by 1× insulin-transferrin-selenium supplement and the cells were treated with vehicle or 10 μM Z160 for 2 days, with or without 60 μM isoproterenol or 50 μM phenylephrine.
NRVM were seeded in a Seahorse Bioscience XF96 plate and cultured for 48 h in 10% FBS. Next, cells were treated with 100 μM ISO for 48 h, followed by 24 h of 10 μM Z160. Oxygen consumption rate (OCR) was recorded in a Seahorse Bioscience XF96 analyzer before and after the sequential injection of 0.75 μM oligomycin, 0.75 μm FCCP and 0.75 μM rotenone/myxothiazol. Reserve capacity was calculated as the difference between basal respiration and FCCP response.

[2] = target: T1, PKA subunits (C-α and RII-β) (Mus musculus, UniProt P05132+P31324); experiment: CETSA in brown adipocytes, PKA subunits; type: binding; conditions: 10 μM for 8 h
T1 construct: endogenous in cells; host or cells: immortalized mouse brown adipocytes
Description: CETSA assays were performed according to known methods. Briefly, differentiated brown adipocytes (one 10 cm dish per treatment) were treated with vehicle or compounds, trypsinized, counted, and re-suspended in approximately 450 μl PBS containing protease inhibitors (volumes were adjusted to have the same number of cells in each treatment). For each sample, 18 μl was distributed into each of 7 PCR tubes. Samples were heated using a thermocycler with a temperature gradient (iCycler, Biorad) for 3 min, followed by 3 min at room temperature, and then snap-frozen in liquid N2. After two freeze-thaw cycles, samples were centrifuged at 20,000 g for 15 min at 4° C., and the supernatants were transferred to another set of tubes. Proteins were analyzed by immunoblotting.
The PKA tetramer consists of two catalytic and two regulatory subunits. In the mouse, these are catalytic subunits C-α and C-β, and regulatory subunits RI and RII, each with α and β isoforms (RI-α, RI-β, RII-α, RII-β). […]
The potential interaction of Z160 with PKA subunits and AKAPs was assessed first by identifying which PKA subunits and AKAP isoforms are normally present in BAT. […] To perform the CETSA assays, cultured brown adipocytes were incubated with 10 μM Z160 for 8 h, after which the thermal shift was analyzed by Western blot.

[3] = tested on: NRVM; experiment: Hypertrophic gene expression in neonatal rat ventricular myocytes; type: cell-based; conditions: 10 μM Z160 concomitantly with 60 μM isoproterenol or 50 μM phenylephrine, 2 days
Description: as §1
RNA levels were measured by qPCR according to known methods. Briefly, RNA was extracted with TRIzol (Invitrogen) and reverse transcribed with iScript (Bio-Rad). Real-time PCR analysis was performed with a CFX Connect (Bio-Rad).

[4] = tested on: UCP1; experiment: Gene expression in immortalized human white adipocytes; type: cell-based; conditions: 10 μM for 4 days
Description: (§2) Human immortalized brown and white preadipocytes were obtained from Dr. Yu-Hua Tseng (Joslin Diabetes Center, Harvard Medical School, USA). The generation of the two cell lines from human neck adipose tissue biopsies and immortalization was performed as previously described but from a different donor. Cells were cultured in high glucose DMEM supplemented with 10% FBS and antibiotics. Two days after reaching confluence, cells were treated with 30 μM biotin, 500 nM insulin, 17 μM pantothenate, 100 nM dexamethasone, 2 nM 3,3′,5-Triiodo-L-thyronine, 500 μM IBMX, 30 μM indomethacin and 1 μM rosiglitazone, for 12 days. Afterwards, cells were treated with 30 μM biotin, 500 nM insulin, 17 μM pantothenate and 2 nM 3,3′,5-Triiodo-L-thyronine (Maintenance media) for 2 days with end-point assays performed on day 18, and for 5 days with end-point assays performed on day 21, for the brown and white adipocytes cells, respectively.
Mouse RNA levels were measured by qPCR according to known methods. Data were normalized to B2m and Tbp reference genes. Human RNA was extracted using an RNA Mini Plus kit (Zymo) and gene expression determined by Taqman assay. The 1-step qPCR was run on a QuantStudio 12K Flex Real Time PCR System (ThermoFisher) using the following protocol: 50° C. for 5 minutes, 95° C. for 20 seconds, 40 cycles of 95° C. for 15 seconds and 60° C. for 60 seconds. […]

[5] = tested on: human white adipocyte cell line; experiment: Cellular respiration in human white adipocytes; type: cell-based; conditions: 10 μM for 4 days
Description: as §2, with “Afterwards, cells were treated with 30 μM biotin, 500 nM insulin, 17 μM pantothenate and 2 nM 3,3′,5-Triiodo-L-thyronine (Maintenance media) for 2 days with end-point assays performed on day 18, and for 5 days with end-point assays performed on day 21, for the brown and white adipocytes cells, respectively.” left out
Cellular respiration was measured using a Seahorse XF24 or XF96 analyzer (Agilent) following known protocols Immortalized brown adipocytes were differentiated in 6-well plates and replated in the Seahorse XF24 plates at a density of 50,000 cells per well using trypsin and collagenase type II. […] Oxygen consumption rates were measured before and after the sequential injection of 1 μM oligomycin, 1 μM FCCP, and 0.5 μM rotenone/antimycin A. For these cells, results were normalized to cell count determined by nuclei fluorescent staining with Hoescht staining imaged on Cytation 5 Imaging Reader and analysis with Gen5 software (BioTek). […] Maximal respiration was determined after FCCP injection.

COc1ccc(NC(=O)CSc2nc3ccccc3c(=O)[nH]2)c(OC)c1 [Z160]
effect on isoproterenol-induced reduction in reserve capacity [1]: prevented the ISO-induced reduction in reserve capacity | denaturation (thermal shift) of PKA subunits C-α and RII-β [2]: did not show differences in denaturation | effect on hypertrophic gene expression profile (Nppa, Nppb, Pln) induced by isoproterenol or phenylephrine [3]: prevented the induction of a hypertrophic gene expression profile; also recorded: reverses the effect of ISO and PE | UCP1 expression [4]: 7 fold | expression of CIDEA, ACADM, CPT1B and ELOVL3 [4]: greatly increased expression | maximal respiration [5]: increased | mitochondrial respiration (uncoupled) [5]: increased

— patent publication US12661355B2, “Compounds and methods for inducing UCP1 expression” (The Regents of the University of California, priority 2020, dated 2026)
